Measured values taken from patent publication US12201620B2, “Compositions and methods for treating chemotherapy resistant cancer” (The Brigham And Women's Hospital, Inc., priority 2016, dated 2025).
Entries after “also recorded” stand apart in the source; their conditions may differ. Residues, ends and D or L forms follow the SMILES beside them. *: point of attachment. Cbz = O=C(OCc1ccccc1)*

Experiments:
[1] = system: Molm13 PPM1D-mutant and control single cell clones; test: 72-hour cell viability analysis; type: cell-based, human; details: for viability of PPM1D-mutant cells versus control cells in the presence of chemotherapeutic agent: 72 hours, increasing concentrations
Experimental: FIG. 2B provides immunoblots of whole cell lysates from Molm13 control cells (control), PPM1D-mutant pooled clones and PPM1D frame-shift (fs) mutant single cell clones probed with anti-PPM1D and anti-Actin. […] FIG. 2D is a plot depicting viability assays in Molm13 PPM1D-mutant or control single cells clones that were treated with increasing concentrations of cyclophosphamide for 72 hours. FIG. 2E is a plot depicting viability assays in Molm13 PPM1D-mutant or control single cells clones that were treated with increasing concentrations of cisplatin for 72 hours. […] FIG. 2G is a plot depicting flow cytometric readout of competition experiment with 5% pooled Molm13 PPM1D-mutant cells and 95% pooled Molm13 control cells exposed to 350 nM Cyclophosphamide or vehicle for 24 days. FIG. 2H is a plot depicting flow cytometric readout of competition experiment with 5% pooled Molm13 PPM1D-mutant cells and 95% pooled Molm13 control cells exposed to 1 μM Cisplatin or vehicle for 24 days. […] PPM1D and control sgRNAs were identified through their fluorophores.
The line represents the locally weighted scatterplot smoothing (LOESS) of 0.1. […] FIG. 8B is a vector map of the degradation reporter vector, with different PPM1D cDNA constructs inserted. FIG. 8C is a graph showing EGFP/mCherry ratio for Molm13 cells with overexpression of wild type PPM1D, truncated PPM1D or the C-terminal end of PPM1D. FIG. 8D is a graph showing EGFP/mCherry ratio for Molm13 p53^−/− cells with overexpression of wild type PPM1D, truncated PPM1D or the C-terminal end of PPM1D. FIG. 8E is a graph showing EGFP/mCherry ratio in Molm13 cells before and after exposure to MG132 (10 μM, 6 hours), normalized to pre-treatment values. FIG. 8F is a plot showing cell viability analysis in Molm13 control cells (control), Molm13 PPM1D truncating mutant cells (PPM1D mutant) and Molm13 cells with overexpression of wild-type PPM1D (WT overexpression). […] For all experiments the following apply: *=p<0.05, **=p<0.01, ***=p<0.001,****=p<0.0001
(§1) 72 hour cell viability analysis in Molm13 PPM1D-mutant and control single cell clones after exposure to increasing doses of GSK2830371. FIG. 10F is a graph showing percent Annexin V positive cells in cells treated with PPM1D inhibitor or vehicle. Annexin V staining and flow cytometric analysis of Molm13 PPM1D-mutant and control single cell clones exposed to 3 μM of GSK2830371. *=p<0.05, **=p<0.01, ***=p<0.001
To study the role of PPM1D mutations in chemotherapy resistance, mutations in PPM1D were induced using the CRISPR-Cas9 system. […] Using sequence verified PPM1D mutant (fs) and empty vector control Molm13 cells, the effects of mutant and wild type PPM1D in the response to DNA damaging chemotherapy were analyzed. […] (FIG. 1C).
(§2) To study the sensitivity of PPM1D truncating mutations to chemotherapy exposure, frame-shift mutations were introduced in the PPM1D gene in Molm13 AML cells, which are TP53 wild-type, using CRISPR-Cas9.

[2] = system: Molm13 PPM1D-mutant pooled cells and control pooled cells; test: In vitro competition experiment, PPM1D-mutant cells mixed with control cells; type: cell-based, human; details: PPM1D mutant cells mixed with control cells
Experimental: FIG. 2B provides immunoblots of whole cell lysates from Molm13 control cells (control), PPM1D-mutant pooled clones and PPM1D frame-shift (fs) mutant single cell clones probed with anti-PPM1D and anti-Actin. […] FIG. 2D is a plot depicting viability assays in Molm13 PPM1D-mutant or control single cells clones that were treated with increasing concentrations of cyclophosphamide for 72 hours. FIG. 2E is a plot depicting viability assays in Molm13 PPM1D-mutant or control single cells clones that were treated with increasing concentrations of cisplatin for 72 hours. […] FIG. […] FIG. […] PPM1D and control sgRNAs were identified through their fluorophores.
as §1, §2

PPM1D = PPM1D degradation reporter (EGFP/mCherry ratio); type: cell-based, human; details: Molm13 cells, MG132 10 μM, 6 hours
Excerpt: The line represents the locally weighted scatterplot smoothing (LOESS) of 0.1. Overlaid are frame-shift and non-sense mutations (black bars) identified in the blood cells of 29,562 persons as described in FIG. 2A. FIG. 8B is a vector map of the degradation reporter vector, with different PPM1D cDNA constructs inserted. FIG. 8C is a graph showing EGFP/mCherry ratio for Molm13 cells with overexpression of wild type PPM1D, truncated PPM1D or the C-terminal end of PPM1D. FIG. 8D is a graph showing EGFP/mCherry ratio for Molm13 p53^−/− cells with overexpression of wild type PPM1D, truncated PPM1D or the C-terminal end of PPM1D. FIG. 8E is a graph showing EGFP/mCherry ratio in Molm13 cells before and after exposure to MG132 (10 μM, 6 hours), normalized to pre-treatment values. […]
A reporter vector was generated in which wild-type PPM1D cDNA (wt), PPM1D truncation mutants, or the last 80 amino-acids (C-terminal region) were cloned in frame with GFP, so the level of expression of the PPM1D sequences could be monitored by GFP expression (FIG. 8B, Table 1).
The fluorescence level of mCherry, which is expressed following an IRES sequence, provided an internal control for vector expression in each cell. […]

PPM1D-mutant cells = test: In vivo competition experiment in bone marrow chimeras treated with cytarabine; details: mice
Excerpt: FIG. 5 provides an experimental schema of an in vivo competition experiment. Bone marrow chimaeras were generated by transplanting Mx-Cre Cas9 cKit^+Cas9 cells transduced with a BFP-tagged sgRNA targeting exon 6 of PPM1D or a tRFP-tagged control sgRNA into lethally-irradiated syngeneic recipients in a 1:5 ratio.
PPM1D and control sgRNAs were identified through their fluorophores. […] […] PPM1D and control sgRNAs were identified through their fluorophores.
Whether PPM1D mutations confer resistance to chemotherapy in vivo was examined. In another experiment, bone marrow chimeras were generated using Mx-Cre Cas9 c-Kit^+ cells that were transduced with a BFP-tagged sgRNA targeting exon 6 of PPM1D or a tRFP-tagged control sgRNA and transplanted into lethally-irradiated syngeneic recipients in a 1:5 ratio (FIG. 5). Mice were treated with cytarabine or vehicle after hematopoietic reconstitution.

[3] = system: Molm13 PPM1D-mutant and control single cell clones; test: Annexin V staining and flow cytometric analysis; type: cell-based, human; details: 400 nM cytarabine, 24 hours
Excerpt: FIG. 9E is a chart depicting the consensus sequence of PPM1D based on substrate analysis of 43 substrate candidates of PPM1D. FIG. 9F depicts 43 potential PPM1D substrate sites on pSer/Thr residues on 25 proteins. […] Only localized sites were considered. Figure discloses SEQ ID NOS 4-20 and 20-31, respectively, in order of appearance. FIG. 9G depicts a schema illustrating the components of the DNA-damage response pathway that are targeted by PPM1D in leukemia cells, based on the results from the phosphoproteomics analysis. Phospho-targets of PPM1D identified by mass spectrometry (FDR<0.1) are shown in bold. Predicted PPM1D target sites that were based on the identified consensus sequence with a glutamine at +1 and >2 acidic residues (p=3.595e-13, Fisher's exact test) are shown in italics.
as §1

[4] = system: Molm13 PPM1D-mutant and control single cell clones; test: BrdU staining and flow cytometric analysis (cell cycle); type: cell-based, human; details: 100 nM cytarabine, 24 hours

O=P1(N(CCCl)CCCl)NCCCO1 (stereo not drawn) [Cyclophosphamide]
viability of PPM1D-mutant cells versus control cells in the presence of chemotherapeutic agent [1]: increased viability at 72 hours
competitive advantage of PPM1D-mutant cells under chemotherapy [2]: PPM1D mutant cells had a competitive advantage

CC(C)C[C@@H](C=O)NC(=O)[C@H](CC(C)C)NC(=O)[C@H](CC(C)C)NC(=O)OCc1ccccc1 [MG132] (Cbz-Leu-Leu-Leu-aldehyde)
degradation of PPM1D constructs (EGFP/mCherry ratio) (PPM1D): decreased degradation of wild-type and C-terminal PPM1D, but not of the truncating mutants

N.N.[Cl][Pt][Cl] [Cisplatin]
viability of PPM1D-mutant cells versus control cells in the presence of chemotherapeutic agent [1]: increased viability at 72 hours

O=C1/C(=C/c2cccs2)CC/C1=C\c1cccs1 [CCT007093]
sensitivity of PPM1D-mutant cells versus control cells to single agent PPM1D inhibitor, cell viability ([1]; 72 hour, increasing doses): increased sensitivity to treatment with the PPM1D inhibitor CCT007093 in comparison to wild-type (wt) control cells; also recorded: increased sensitivity to PPM1D inhibition with either compound in comparison to wild type control cells

Nc1ccn([C@@H]2O[C@H](CO)[C@@H](O)[C@@H]2O)c(=O)n1 [Cytarabine]
PPM1D-mutant cells in the peripheral blood after cytarabine treatment (PPM1D-mutant cells; 1:5 chimeras, several rounds of cytarabine): significant, selective increase of PPM1D-mutant cells in the peripheral blood
PPM1D-mutant hematopoietic stem and progenitor cells in the bone marrow (PPM1D-mutant cells; 12 weeks, 3 rounds of cytarabine): also increased
apoptosis of PPM1D-mutant versus control cells after chemotherapy, Annexin V staining [3]: decreased apoptosis
viability of PPM1D-mutant cells versus control cells in the presence of chemotherapeutic agent [1]: increased resistance to Cytarabine in PPM1D mutant cells compared to empty vector controls; also recorded: resistance to treatment with Cytarabine
viability of PPM1D-mutant cells versus control cells in the presence of chemotherapeutic agent ([1]; listed as cytarabine): increased viability at 72 hours
competitive advantage of PPM1D-mutant cells under chemotherapy [2]: PPM1D mutant cells had a competitive advantage
progression to G2/M phase of PPM1D-mutant versus control cells after chemotherapy [4]: increased progression to G2/M phase
